These results are taken from patent publication US12122761B2, “2-azaspiro[3.4]octane derivatives as M4 agonists” (NOVARTIS AG, priority 2019, dated 2024).

Structures are written as SMILES.

Assay [1] concerns the target T1, Cloned human M1 receptor (CHRM1) stably expressed in HEK293 cells (Homo sapiens, UniProt P11229).
T1 construct: expressed in transfected cells; host or cells: HEK293
T1 sequence (P11229 1-460): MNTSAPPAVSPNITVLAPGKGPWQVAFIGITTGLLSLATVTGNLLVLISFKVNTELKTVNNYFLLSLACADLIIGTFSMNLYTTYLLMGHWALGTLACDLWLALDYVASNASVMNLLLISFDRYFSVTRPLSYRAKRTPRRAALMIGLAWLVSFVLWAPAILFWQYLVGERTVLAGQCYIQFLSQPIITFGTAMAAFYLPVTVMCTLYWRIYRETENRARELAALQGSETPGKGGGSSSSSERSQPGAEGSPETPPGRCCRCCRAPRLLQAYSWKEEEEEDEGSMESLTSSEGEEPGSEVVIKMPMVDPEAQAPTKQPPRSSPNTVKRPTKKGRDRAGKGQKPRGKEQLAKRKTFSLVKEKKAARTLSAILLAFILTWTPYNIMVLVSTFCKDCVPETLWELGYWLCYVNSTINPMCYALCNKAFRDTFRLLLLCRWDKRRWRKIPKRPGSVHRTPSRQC
The assay can be described thus: CHRM1 Ca++ Flux Assay (agonist mode, FDSS 7000EX). The class given is cell-based. Conditions: for M1 FDSS PA: Percent Activity; for EC50: geometric mean if tested more than once. The method, then:
(§1) The above examples were characterized by measuring the intracellular mobilization of Ca++ ions caused by signaling events mediated by the receptor. The Intra-cellular Calcium flux levels were captured by the highly sensitive Ca++ indicator, Calcium Assay Kit (BD Biosciences, Catalog Number 640178). The fluorescent activity from all receptors were monitored by the fluorescent imager, FDSS 7000EX (Hamamatsu) over a span of 3 minutes.
Cloned human M1 receptor (CHRM1) was stably expressed in HEK293 cells and were grown and maintained in a monolayer culture with DMEM/High Glucose (Life Technologies) supplemented with 10% Fetal Bovine Serum, 1× Pen-Strep, and 0.5 mg/mL Geneticin in a humidified atmosphere (5% CO2) at 37° C. The cultures were grown to 90% confluency in T150 flasks (Corning) and washed with 1×DPBS and lifted with 0.05% Trypsin (Life Technologies). The cells were then spun (1K rpm, 3 minutes) and frozen using Recovery Cell Culture Freezing Media (Gibco Technologies). Cells were stored in liquid nitrogen and thawed a day before the assay.
Prior to the day of the assay, stable HEK293 M1 cells were thawed and plated on 384 well black walled clear bottom TC treated plates (Greiner Cat #781091) at 25K cells/well with DMEM/High Glucose supplemented with 10% FBS (Hyclone) Pen-Strep (Life Technologies) and kept overnight in a humidified atmosphere (5% CO2) at 37° C. The following day, cells were loaded with 20 uL Ca^++ dye (BD Biosciences) using Loading Buffer (HBSS +Ca/+Mg, 20 mM HEPES) and placed back in cell incubator for a minimum of 1 hour. The dye was replaced with 45 μL Assay Buffer (HBSS −Ca/−Mg, 20 mM HEPES) and kept at room temperature prior to running on cell imager. Compounds were prepared in Assay Buffer and 5 uL was added to the cells. The FDSS 7000EX (Hamamatsu) was used to acquire Ca++ traces for 3 minutes from cells treated with 11 point dose in triplicate in order to generate dose response curves in agonist mode. All compounds were serially diluted in DMSO then prepared in Assay Buffer for Ca^++ flux studies. The dose response curves were generated from the average of triplicate wells obtained from each data point and used a non-linear regression of four parameter dose response algorithm. The Percent Activity (PA) was measured to EC100 of Carbachol.

Assay [2] addresses T2, human cloned CHRM3 receptor (M3_CHO cells) (Homo sapiens, UniProt P20309).
T2 construct: expressed in transfected cells; host or cells: CHO-K1
The assay can be described thus: CHRM3 Ca++ Flux Assay (agonist mode, FDSS 7000EX). The class given is cell-based. The conditions noted are these: for M3 FDSS PA: Percent Activity measured to EC100 of Carbachol; for EC50: agonist mode, geometric mean if tested more than once, read-out: M3 FDSS EC50. The method, then:
as §1
CHO-K1 cells stably expressing the human cloned CHRM3 receptor (M3_CHO cells) were grown and maintained in a monolayer culture with F12/HAM (Life Technologies) supplemented with 10% Fetal Bovine Serum, 1× Pen-Strep, and 0.4 mg/mL Geneticin in a humidified atmosphere (5% CO2) at 37° C. The cultures were grown to 80-9 0% confluency in T150 flasks (Corning) and washed with 1×DPBS and lifted with 0.05% Trypsin (Life Technologies). The cells were then spun (1K rpm, 3 minutes) and frozen using Recovery Cell Culture Freezing Media (Gibco Technologies). Cells were stored in liquid nitrogen and thawed a day before the assay. A similar procedure was used for cells stably expressing the human cloned CHRM5 receptor (M5_CHO).
Prior to the day of the assay, stable M3_CHO or M5_CHO cells were thawed and plated on Greiner 384 well black TC treated plates at 12K cells/well in F12/DMEM supplemented with 10% FBS (Hyclone) and kept overnight in a humidified atmosphere (5% CO2) at 37° C. The next day, cells were loaded with Ca^++ dye (BD Biosciences) using Loading Buffer (HBSS +Ca/+Mg, 20 mM HEPES, 2.5 mM Probenecid) and placed back in cell incubator for a minimum of 1 hour. After incubation, the dye was replaced with Assay Buffer (HBSS −Ca/−Mg, 20 mM HEPES, 2.5 mM Probenecid) and kept at room temperature in the dark before running on cell imager. The FDSS 7000EX (Hamamatsu) was used to acquire Ca^++ traces from cells treated with 11 point dose response of compounds in triplicate in order to generate dose response curves in agonist mode. All compounds were serially diluted in DMSO then prepared in Assay Buffer for Ca^++ flux studies. The dose response curves were generated from the average of triplicate wells obtained from each data point and used a non-linear regression of four parameter dose response algorithm. The Percent Activity (PA) was measured to EC100 of Carbachol.

T2 sequence (P20309 whole entry): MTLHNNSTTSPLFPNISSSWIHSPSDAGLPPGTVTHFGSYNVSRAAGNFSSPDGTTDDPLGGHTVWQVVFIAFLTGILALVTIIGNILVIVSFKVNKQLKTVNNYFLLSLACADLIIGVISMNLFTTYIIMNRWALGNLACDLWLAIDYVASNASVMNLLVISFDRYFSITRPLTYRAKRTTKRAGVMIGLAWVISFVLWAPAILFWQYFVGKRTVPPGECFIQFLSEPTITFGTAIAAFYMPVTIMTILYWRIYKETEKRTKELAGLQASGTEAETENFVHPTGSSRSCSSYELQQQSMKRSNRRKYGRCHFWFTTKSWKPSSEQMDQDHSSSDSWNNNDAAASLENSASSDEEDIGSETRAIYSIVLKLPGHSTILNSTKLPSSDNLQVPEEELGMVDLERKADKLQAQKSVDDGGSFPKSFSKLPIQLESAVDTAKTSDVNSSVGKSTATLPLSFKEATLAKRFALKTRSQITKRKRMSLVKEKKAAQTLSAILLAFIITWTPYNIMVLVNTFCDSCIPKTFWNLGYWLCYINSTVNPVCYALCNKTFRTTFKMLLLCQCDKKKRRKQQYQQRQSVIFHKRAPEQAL

What is called EC50 is the concentration needed to bring the measured effect to its halfway point. As to `O=C(N1CC2(CC[C@@H](N3CCC(c4ccccc4OCC4CCOCC4)CC3)C2)C1)C1(F)CC1` (single isomer, unassigned) [Example 7Q, (R)-(1-fluorocyclopropyl)(6-(4-(2-((tetrahydro-2H-pyran-4-yl)methoxy)phenyl)piperidin-1-yl)-2-azaspiro[3.4]octan-2-yl)methanone or (S)-(1-fluorocyclopropyl)(6-(4-(2-((tetrahydro-2H-pyran-4-yl)methoxy)phenyl)piperidin-1-yl)-2-azaspiro[3.4]octan-2-yl)methanone], in assay [1], the “M1 FDSS PA” value is 37% and the EC50 amounted to 0.135 µM. In assay [2], the “M3 FDSS PA” value is recorded as 0% and the EC50 is greater than 25 µM.

As to `Cc1nnc(COc2ccccc2C2CCN([C@@H]3CCC4(C3)CN(C(=O)C3(F)CC3)C4)CC2)s1` (single isomer, unassigned) [Example 7R, (R)-(1-fluorocyclopropyl)(6-(4-(2-((5-methyl-1,3,4-thiadiazol-2-yl)methoxy)phenyl)piperidin-1-yl)-2-azaspiro[3.4]octan-2-yl)methanone or (S)-(1-fluorocyclopropyl)(6-(4-(2-((5-methyl-1,3,4-thiadiazol-2-yl)methoxy)phenyl)piperidin-1-yl)-2-azaspiro[3.4]octan-2-yl)methanone], in assay [1], the “M1 FDSS PA” value was determined as 0% and the EC50 is greater than 25 µM. In assay [2], the “M3 FDSS PA” value stood at 0% and the EC50 was greater than 25 µM.

Regarding `CCOc1ccccc1C1CCN([C@@H]2CCC3(C2)CN(C(=O)C2(F)CC2)C3)CC1` (single isomer, unassigned) [Example 7S, (R)-(6-(4-(2-ethoxyphenyl)piperidin-1-yl)-2-azaspiro[3.4]octan-2-yl)(1-fluorocyclopropyl)methanone or (S)-(6-(4-(2-ethoxyphenyl)piperidin-1-yl)-2-azaspiro[3.4]octan-2-yl)(1-fluorocyclopropyl)methanone], in assay [1], the “M1 FDSS PA” value came out at 0% and the EC50 is greater than 25 µM. For the same compound, in assay [2], the “M3 FDSS PA” value came to 0% and the EC50 was greater than 25 µM.

`O=C(N1CC2(CC[C@@H](N3CCC(c4ccccc4OCC4CC4)CC3)C2)C1)C1(F)CC1` (single isomer, unassigned) [Example 7T, (R)-(6-(4-(2-(cyclopropylmethoxy)phenyl)piperidin-1-yl)-2-azaspiro[3.4]octan-2-yl)(1-fluorocyclopropyl)methanone or (R)-(6-(4-(2-(cyclopropylmethoxy)phenyl)piperidin-1-yl)-2-azaspiro[3.4]octan-2-yl)(1-fluorocyclopropyl)methanone]: in assay [1], the “M1 FDSS PA” value came out at 32% and the response was half-maximal at 4.35 µM (EC50). For the same compound, in assay [2], the “M3 FDSS PA” value is 0% and the EC50 is greater than 25 µM.

With `Cc1noc(C)c1COc1ccccc1C1CCN([C@@H]2CCC3(C2)CN(C(=O)C2(F)CC2)C3)CC1` (single isomer, unassigned) [Example 7U, (R)-(6-(4-(2-((3,5-dimethylisoxazol-4-yl)methoxy)phenyl)piperidin-1-yl)-2-azaspiro[3.4]octan-2-yl)(1-fluorocyclopropyl)methanone or (S)-(6-(4-(2-((3,5-dimethylisoxazol-4-yl)methoxy)phenyl)piperidin-1-yl)-2-azaspiro[3.4]octan-2-yl)(1-fluorocyclopropyl)methanone], in assay [1], the “M1 FDSS PA” value is on record as 0% and the EC50 was greater than 25 µM. Also, in assay [2], the “M3 FDSS PA” value is on record as 0% and the EC50 is greater than 25 µM.

For `Cc1ncc(COc2ccccc2C2CCN([C@@H]3CCC4(C3)CN(C(=O)C3(F)CC3)C4)CC2)o1` (single isomer, unassigned) [Example 7V, (R)-(1-fluorocyclopropyl)(6-(4-(2-((2-methyloxazol-5-yl)methoxy)phenyl)piperidin-1-yl)-2-azaspiro[3.4]octan-2-yl)methanone or (S)-(1-fluorocyclopropyl)(6-(4-(2-((2-methyloxazol-5-yl)methoxy)phenyl)piperidin-1-yl)-2-azaspiro[3.4]octan-2-yl)methanone], in assay [1], the “M1 FDSS PA” value worked out at 18% and the EC50 came to 2.3 µM. Further, in assay [2], the “M3 FDSS PA” value is 0% and the EC50 is greater than 25 µM.

Turning to `Cc1nnc(COc2ccccc2C2CCN([C@@H]3CCC4(C3)CN(C(=O)C3(F)CC3)C4)CC2)o1` (single isomer, unassigned) [Example 7W, (R)-(1-fluorocyclopropyl)(6-(4-(2-((5-methyl-1,3,4-oxadiazol-2-yl)methoxy)phenyl)piperidin-1-yl)-2-azaspiro[3.4]octan-2-yl)methanone or (S)-(1-fluorocyclopropyl)(6-(4-(2-((5-methyl-1,3,4-oxadiazol-2-yl)methoxy)phenyl)piperidin-1-yl)-2-azaspiro[3.4]octan-2-yl)methanone], in assay [1], the “M1 FDSS PA” value came out at 80% and the EC50 was determined as 0.002 µM. In addition, in assay [2], the “M3 FDSS PA” value amounted to 0% and the EC50 is greater than 25 µM.

Turning to `Cc1nc(COc2ccccc2C2CCN([C@@H]3CCC4(C3)CN(C(=O)C3(F)CC3)C4)CC2)no1` (single isomer, unassigned) [Example 7X, (R)-(1-fluorocyclopropyl)(6-(4-(2-((5-methyl-1,2,4-oxadiazol-3-yl)methoxy)phenyl)piperidin-1-yl)-2-azaspiro[3.4]octan-2-yl)methanone or (S)-(1-fluorocyclopropyl)(6-(4-(2-((5-methyl-1,2,4-oxadiazol-3-yl)methoxy)phenyl)piperidin-1-yl)-2-azaspiro[3.4]octan-2-yl)methanone], in assay [1], the “M1 FDSS PA” value amounted to 86% and the EC50 was found to be 0.003 µM. Besides, in assay [2], the “M3 FDSS PA” value turned out to be 0% and the EC50 was greater than 25 µM.

Consider `Cc1nnc(COc2ccccc2C2CCN([C@@H]3CCC4(C3)CN(C(=O)C3(F)CC3)C4)CC2)o1` (single isomer, unassigned) [Example 7Y, (R)-(1-fluorocyclopropyl)(6-(4-(2-((5-methyl-1,3,4-oxadiazol-2-yl)methoxy)phenyl)piperidin-1-yl)-2-azaspiro[3.4]octan-2-yl)methanone or (S)-(1-fluorocyclopropyl)(6-(4-(2-((5-methyl-1,3,4-oxadiazol-2-yl)methoxy)phenyl)piperidin-1-yl)-2-azaspiro[3.4]octan-2-yl)methanone], for which, in assay [1], the “M1 FDSS PA” value stood at 67% and the response was half-maximal at 0.246 µM (EC50). Moreover, in assay [2], the “M3 FDSS PA” value is 0% and the EC50 was greater than 25 µM.
